From US20230220047A1, “PEPTIDES FOR TREATMENT OF SEPSIS AND CANCER” (NORWEGIAN UNIVERSITY OF SCIENCE AND TECHNOLOGY (NTNU), priority 2020, published 2023)

What was measured:
[1] = test system: ANBL-6 multiple myeloma cells; assay: CellTiter-Glo cell viability assay, ANBL-6; assay type: cell-based; conditions: for anti-proliferative activity over a concentration series: 5, 10, 12.5, 15, 20 and 30 μM or 5, 10 and 20 μM
[2] = test system: TLR4; assay: qPCR of TLR4-mediated cytokine expression in B6 immortalised murine macrophages; assay type: cell-based, mouse; conditions: 10 μM, 1 h pre-treatment, LPS 100 ng/ml
Protocol: Cells were pre-treated with 10 μM peptides in cell culture media for 1 h, and stimulated with LPS (100 ng/ml) for increasing lengths of time.
Immortalized bone-derived-macrophages (iBMDM) from wild type, Tram−/− or TIr4−/− C57BL/6 mice were maintained at 37° C. and 5% CO2 in DMEM supplemented with 10% FCS.
Total RNA was isolated from the cells using Qiazol reagent #79306 from QIAGEN, and chloroform extraction followed by purification on RNeasy Mini columns with DNAse digestion (Qiagen). cDNA was prepared using the Maxima First Strand cDNA Synthesis Kit for quantitative real-time polymerase chain reaction (RT-qPCR) (Thermo Fisher Scientific) according to the manufacturer's protocol. qPCR was performed using the PerfeCTa qPCR FastMix (Quanta Biosciences) in replicates and cycled in a StepOnePlus™ Real-Time PCR cycler. The following TaqMan® Gene Expression Assays (Applied Biosystems®) were used: IFNβ (Hs01077958_s1), TNF (Hs00174128_m1), TBP (Hs00427620_m1), CXCL10 (Hs01124251_g1), IL-6 (Hs00174131_m1) and IL-1β (Hs01555410_m1), for human cells; Ifnβ (Mm00439552_s1), Tnf (Mm00443258_m1), Tbp (Mm01277042_m1) and II-1β (Mm00434228_m1), for mouse cells. No RT controls were negative. The level of TBP mRNA was used for normalisation and results presented as relative expression compared to the control untreated sample. Relative expression was calculated using Pfaffl's mathematical model (Pfaffl, Nucleic Acids Research 29(9): e45, 2001). Results are presented as the mean and SD expression fold change for biological replicates relative to non-stimulated cells. Statistical significance was evaluated in GraphPad Prizm 5.03. Data distribution was assumed to be normal but this was not formally tested. The difference between the two groups was determined by two-tailed t test.
We proceeded with cellular assays to address the effect of peptide pre-treatment on TLR4-mediated cytokine expression in B6 immortalised murine macrophages (FIG. 13). Tested peptides had no cytotoxic effect on B6 murine macrophages (FIG. 13A).

[3] = test system: E. coli particles; assay: Whole blood assay, E. coli particle stimulation; assay type: cell-based, human

Substance	effect on proliferation of ANBL-6 cells ([1]; 15 μM)	anti-proliferative activity over a concentration series ([1]; 48 h)	cell proliferation ([1]; ANBL-6, 10 μM, 48 h)	cytotoxic activity (cell numbers below number seeded) ([1]; higher concentrations, 48 h)	TLR4-mediated Ifnβ, Tnf and Il-1β mRNA expression [2]	E. coli-mediated IFNβ secretion ([3]; 20 μM, 4 h)	E. coli-mediated IL-1β secretion ([3]; 20 μM, 4 h)	E. coli-mediated TNF production ([3]; 20 μM, 4 h)	E. coli-mediated IL-6 ([3]; 20 μM, 4 h, not statistically significant)	E. coli-mediated IFNβ secretion by whole blood cells ([3]; pilot assay, 10 μM, E. coli particles)
Ac-ITVAASVTLTGRQIKIWFQNRRMKWKK-NH2 [Peptide P7-A4-Pen]	anti-proliferative effect	clear concentration-dependent effect	strongly inhibited cell proliferation	cytotoxic activity	strongly inhibited					
Ac-ITVYASVTLTGRQIKIWFQNRRMKWKK-NH2 [Peptide P7-Pen]		essentially no anti-proliferative effect			strongly inhibited	significantly inhibiting	no significant effect	Significant inhibition	a degree of inhibition	
Ac-ITVYASVTLTGRRRRRRRRRRR-NH2 [Peptide P7-Arg11]										inhibited
